Experimental data from patent publication US20250114367A1, “METHOD OF TREATING HAIR LOSS DISORDERS” (Sun Pharmaceutical Industries, Inc., priority 2023, published 2025).

Columns and labels:
[1] = system: adult subjects with moderate to severe AA; experiment: Phase III trial: Patient Global Impression of Improvement (PGI-I); assay type: in vivo, human; conditions: non-missing data
Description: The PGI-I was assessed by the subject. Compared to the subject's AA prior to treatment at baseline, the subject's current state of AA was assessed according to his/her perceived change. The subject selected 1 of 7 numeric choices representing “Very Much Worse” to “Very Much Improved.” If a subject was unable to attend an in-person clinic visit due to COVID-19, the PGI-I was to be performed via a virtual visit with video capability.
(§1) A Phase III trial was conducted to assess the efficacy and safety of CTP-543 in adult subjects with moderate to severe AA. Approximately 440 adult male and female subjects 18 to 65 years of age, inclusive, with moderate to severe AA participated in the study. Subjects with definitive diagnosis of AA, and at least 50% hair loss, as defined by a SALT score ≥50, who met all of the inclusion criteria and none of the exclusion criteria participated in the study.
(§2) The Screening Period lasted up to 28 days prior to initiation of study drug. […] Randomization was stratified by scalp hair loss into 1 of the following 2 categories: 1) partial scalp hair loss (SALT ≥50 and <95), 2) complete or near complete scalp hair loss (SALT ≥95).
(§3) Additional secondary efficacy endpoints included the following: • Relative change in SALT scores from baseline at Weeks 4, 8, 12, 16, 20, and 24. • Percentage of responders (defined as “much improved” or “very much improved”) using the Clinical Global Impression of Improvement (CGI-I) at Weeks 12, 16, 20, and 24. • Percentage of responders (defined as “much improved” or “very much improved”) using the Patient Global Impression of Improvement (PGI-I) at Weeks 12, 16, 20, and 24. • Change from baseline in the Clinical Global Impression of Severity (CGI-S) at Weeks 12, 16, 20, and 24. • Change from baseline in the Patient Global Impression of Severity (PGI-S) at Weeks 12, 16, 20, and 24. • Change from baseline on the Brigham Eyebrow Tool for Alopecia (BETA) score at Weeks 12 and 24. • Change from baseline on the Brigham Eyelash Tool for Alopecia (BELA) score at Weeks 12 and 24. • Percentage of subjects achieving at least a 75% relative reduction in SALT score from baseline at Weeks 12 and 24. • Percentage of subjects achieving at least a 90% relative reduction in SALT score from baseline at Weeks 12 and 24. • Percentage of responders (defined as “satisfied” or “very satisfied”) on the SPRO scale at Weeks 12, 16, and 20. • Change from baseline in the SPRO scale at Weeks 12, 16, 20, and 24. • Percentage of subjects achieving a ≥2-point change from baseline in the SPRO scale at Weeks 12, 16, 20, and 24. • Change from baseline on the individual items of the Hair Quality Patient Reported Outcome (QPRO) scale at Weeks 12, 16, 20, and 24. • Change from baseline in the depression scale of the Hospital Anxiety and Depression Scale (HADS) at Week 24. • Change from baseline in the anxiety scale of the HADS at Week 24. • Percentage of subjects achieving an absolute SALT score of ≤20 at Week 4. • Percentage of subjects achieving an absolute SALT score of ≤10 at Week 24
Detailed data are described below.

plasma protein = experiment: Plasma protein binding of CTP-543 at 2 hours post-dose (renal impairment study); assay type: in vitro ADME, human; conditions: moderate renal impairment vs matched controls with normal renal function
Source text: All subjects had samples collected for PK.

[2] = system: adult subjects with moderate to severe AA; experiment: Phase III trial: Clinical Global Impression of Improvement (CGI-I); assay type: in vivo, human; conditions: non-missing data
Description: The CGI-I was assessed by the investigator. Compared to the subject's alopecia areata prior to treatment at baseline, the subject's current state of alopecia areata was assessed according to the investigator's perceived change. The investigator selected 1 of 7 numeric choices representing “Very Much Worse” to “Very Much Improved.” To reduce variability, 1 rater was to perform the CGI-I assessment for the subject for the duration of the study.
as §1, §2, §3
Subjects with responses of “very much improved” or “much improved” were considered CGI-I responders. […] Detailed data are described below. At each visit, the percentage of CGI-I responders (non-missing data) was as follows: […]

Structure (SMILES): [2H]C1([2H])C([C@@H](CC#N)n2cc(-c3ncnc4[nH]ccc34)cn2)C([2H])([2H])C([2H])([2H])C1([2H])[2H] [CTP-543, (R)-3-(4-(7H-pyrrolo[2,3-d]pyrimidin-4-yl)-1H-pyrazol-1-yl)-3-(cyclopentyl-2,2,3,3,4,4,5,5-d8) propanenitrile]
- percentage of PGI-I responders (very much improved or much improved) ([1]; Week 24, 8 mg BID): 50.9%
- percentage of PGI-I responders (very much improved or much improved) ([1]; Week 24, 12 mg BID): 68.3%
- percentage of PGI-I responders (very much improved or much improved) ([1]; week 12, 8 mg BID): 43.3%
- percentage of PGI-I responders (very much improved or much improved) ([1]; week 12, 12 mg BID): 49.2%
- percentage of PGI-I responders (very much improved or much improved) ([1]; week 16, 8 mg BID): 46.2%
- percentage of PGI-I responders (very much improved or much improved) ([1]; week 16, 12 mg BID): 59.8%
- percentage of PGI-I responders (very much improved or much improved) ([1]; week 20, 8 mg BID): 48.7%
- percentage of PGI-I responders (very much improved or much improved) ([1]; week 20, 12 mg BID): 64.4%
- differences in plasma protein binding between cohorts (plasma protein): no meaningful differences
- percentage of CGI-I responders (very much improved or much improved) ([2]; Week 24, 8 mg BID): 54.1%
- percentage of CGI-I responders (very much improved or much improved) ([2]; Week 24, 12 mg BID): 61.7%
- percentage of CGI-I responders (very much improved or much improved) ([2]; week 12, 8 mg BID): 38.0%
- percentage of CGI-I responders (very much improved or much improved) ([2]; week 12, 12 mg BID): 44.3%
- percentage of CGI-I responders (very much improved or much improved) ([2]; week 16, 8 mg BID): 45.0%
- percentage of CGI-I responders (very much improved or much improved) ([2]; week 16, 12 mg BID): 52.0%
- percentage of CGI-I responders (very much improved or much improved) ([2]; week 20, 8 mg BID): 50.0%
- percentage of CGI-I responders (very much improved or much improved) ([2]; week 20, 12 mg BID): 9.0%
